Measured values as given in patent US20110182850A1, “ORGANIC COMPOUNDS AND THEIR USES” (priority 2009, published 2011).
pIC50: −log10 of the molar value. Like-named read-outs stand apart in the source and are kept apart here.

Key:
[1] = target: T1, HCV NS3-4A serine protease (full-length NS3-4A protein, genotype 1a, strain HCV-1) (Hepatitis C virus genotype 1a, UniProt P26664); assay: HCV NS3-4A protease assay; type: biochemical
T1 construct: using the full-length NS3-4A protein (genotype 1a, strain HCV-1)
T1 sequence (P26664 1658-1711): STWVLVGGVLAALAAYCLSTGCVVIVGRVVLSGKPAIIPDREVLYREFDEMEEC
T1 sequence (P26664 1027-1657): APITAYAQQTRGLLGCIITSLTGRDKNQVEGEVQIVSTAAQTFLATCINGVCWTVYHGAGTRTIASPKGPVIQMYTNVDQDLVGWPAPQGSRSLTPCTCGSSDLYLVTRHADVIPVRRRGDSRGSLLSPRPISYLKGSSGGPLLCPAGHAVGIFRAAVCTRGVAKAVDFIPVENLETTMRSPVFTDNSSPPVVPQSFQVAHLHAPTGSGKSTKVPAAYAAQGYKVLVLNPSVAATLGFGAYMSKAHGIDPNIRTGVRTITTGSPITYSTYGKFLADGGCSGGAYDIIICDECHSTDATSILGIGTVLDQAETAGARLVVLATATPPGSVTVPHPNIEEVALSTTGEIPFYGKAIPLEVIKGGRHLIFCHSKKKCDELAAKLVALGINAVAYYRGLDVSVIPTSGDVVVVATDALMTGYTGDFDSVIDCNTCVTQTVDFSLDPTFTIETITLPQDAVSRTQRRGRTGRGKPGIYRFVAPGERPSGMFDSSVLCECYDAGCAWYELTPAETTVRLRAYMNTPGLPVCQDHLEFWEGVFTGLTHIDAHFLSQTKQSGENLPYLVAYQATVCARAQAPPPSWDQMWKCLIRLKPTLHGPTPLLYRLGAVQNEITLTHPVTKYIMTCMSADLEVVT
Description: The inhibitory activity of certain compounds of Table A against HCV NS3-4A serine protease is determined in a homogenous assay using the full-length NS3-4A protein (genotype 1a, strain HCV-1) and a commercially available internally-quenched fluorogenic peptide substrate as described by Taliani, M., et al. 1996 Anal. Biochem. 240:60-67, which is incorporated by reference in its entirety.

[2] = Measurement of thermodynamic solubility; type: physicochemical; conditions: for solubility at 24 h: thermodynamic from solid, read-out: solubility in water
Description: Thermodynamic solubility for the compounds of the invention listed in Table C is measured by a published literature procedure, e.g., Liping Zhou, et al., J. Pharm. Sci (2007) 96(11): 3052-3071.
The DMSO stocks of test compounds previously dissolved in 25 μL of DMSO (˜10 mM) in mini-prep vial (MPV: Whatman, with PVDF filter and 0.45 μm pore size) chamber were evaporated via a GeneVac HT-4X evaporator for approximately 1 hour, at the guard temperature of 30° C. An aliquot of 250 μL buffer solution (pH 1.0 or 6.8) was added into each MPV chamber containing powders reconstituted from DMSO stock solutions. The MPV filter plungers were pushed down into the chamber until the membrane of the filter plunger slightly touched the surface of the buffer to promote equilibrium between the two compartments and to minimize the adsorption due to non-specific binding of samples during the subsequent 24-hr incubation (at 600 RPM at room temperature). Immediately after the 24-hr incubation, the plungers were further pushed down to the bottom of the chambers. More solution was pushed through the membrane and entered the plunger compartment. The filter/chamber assemblies were then put on a shaker for another 30 minutes at 600 RPM. Afterwards, filtrates were further diluted (1:10) with 50/50 acetonitrile/water solvent followed by a thorough mixing process. Both plates with diluted and undiluted filtrates were analyzed by HPLC and quantified against the four-point standard dilution curve of the same test compound (5 μM, 35 μM, 65 μM and 100 μM, respectively). In the current study, solubility reflects the average of triplicate samples tested at each pH.

[3] = pH 1, simulated gastric fluid, pH of about 1
[4] = pH 6.8, aqueous buffer, pH of about 6.8

Row | Molecule | pIC50 ([1]; Protease IC50) | solubility at 24 h [2, 3] | solubility at 24 h [2, 4] | pIC50 ([1]; read-out: Protease IC50) | further results
1 | C=C[C@@H]1C[C@]1(NC(=O)[C@@H]1C[C@@]2(CN1C(=O)[C@@H](NC(=O)[C@@H](NC(=O)[C@@H]1CCCCN1CC)C1CCCCC1)C(C)(C)C)C(C)(C)C21CCC1)C(=O)NS(=O)(=O)C1(CCC)CC1 [Compound 67, (5R,8S)-7-[(2S)-2-{[(2S)-2-cyclohexyl-2-({[(2S)-1-ethylpiperidin-2-yl]carbonyl}amino)acetyl]amino}-3,3-dimethylbutanoyl]-10,10-dimethyl-N-[(1R,2S)-1-{[(1-propylcyclopropyl)sulfonyl]carbamoyl}-2-vinylcyclopropyl]-7-azadispiro[3.0.4.1]decane-8-carboxamide] | 8.82 | ≥ 100 µM | ≥ 30 µM |  | 
2 | C=C[C@@H]1C[C@]1(NC(=O)[C@@H]1C[C@@]2(CN1C(=O)[C@@H](NC(=O)[C@@H](NC(=O)[C@@H]1CCCN1CC)C1CCCCC1)C(C)(C)C)C(C)(C)C21CCC1)C(=O)NS(=O)(=O)C1(CCC)CC1 [Compound 69, (5R,8S)-7-[(2S)-2-{[(2S)-2-cyclohexyl-2-({[(2S)-1-ethylpyrrolidin-2-yl]carbonyl}amino)acetyl]amino}-3,3-dimethylbutanoyl]-10,10-dimethyl-N-[(1R,2S)-1-{[(1-propylcyclopropyl)sulfonyl]carbamoyl}-2-vinylcyclopropyl]-7-azadispiro[3.0.4.1]decane-8-carboxamide] | 8.82 | ≥ 100 µM | ≥ 30 µM |  | 
3 | C=C[C@@H]1C[C@]1(NC(=O)[C@@H]1C[C@@]2(CN1C(=O)[C@@H](NC(=O)[C@@H](NC(=O)[C@@H]1CCCN1CC)C1CCCCC1)C(C)(C)C)C(C)(C)C21CCC1)C(=O)NS(=O)(=O)C1(C)CC1 [Compound 71, (5R,8S)-7-[(2S)-2-{[(2S)-2-cyclohexyl-2-({[(2S)-1-ethylpyrrolidin-2-yl]carbonyl}amino)acetyl]amino}-3,3-dimethylbutanoyl]-10,10-dimethyl-N-[(1R,2S)-1-{[(1-methylcyclopropyl)sulfonyl]carbamoyl}-2-vinylcyclopropyl]-7-azadispiro[3.0.4.1]decane-8-carboxamide] | 9.52 | ≥ 100 µM | ≥ 30 µM |  | 
4 | C=C[C@@H]1C[C@]1(NC(=O)[C@@H]1C[C@@]2(CN1C(=O)[C@@H](NC(=O)[C@@H](NC(=O)[C@H]1CCCCN1C(C)C)C1CCCCC1)C(C)(C)C)C(C)(C)C21CCC1)C(=O)NS(=O)(=O)C1(C)CC1 [Compound 74, (5R,8S)-7-[(2S)-2-{[(2S)-2-cyclohexyl-2-({[(2R)-1-isopropylpiperidin-2-yl]carbonyl}amino)acetyl]amino}-3,3-dimethylbutanoyl]-10,10-dimethyl-N-[(1R,2S)-1-{[(1-methylcyclopropyl)sulfonyl]carbamoyl}-2-vinylcyclopropyl]-7-azadispiro[3.0.4.1]decane-8-carboxamide] | 9.10 | ≥ 100 µM | ≥ 30 µM |  | 
5 | CCCC1(S(=O)(=O)NC(=O)[C@@]2(NC(=O)[C@@H]3C[C@@]4(CN3C(=O)[C@@H](NC(=O)[C@@H](NC(=O)[C@@H]3CCCCN3CC)C3CCCCC3)C(C)(C)C)C(C)(C)C43CCC3)C[C@H]2CC)CC1 [Compound 76, (5R,8S)-7-[(2S)-2-{[(2S)-2-cyclohexyl-2-({[(2S)-1-ethylpiperidin-2-yl]carbonyl}amino)acetyl]amino}-3,3-dimethylbutanoyl]-N-[(1R,2R)-2-ethyl-1-{[(1-propylcyclopropyl)sulfonyl]carbamoyl}cyclopropyl]-10,10-dimethyl-7-azadispiro[3.0.4.1]decane-8-carboxamide] | 8.22 | ≥ 100 µM | ≥ 30 µM |  | 
6 | CCCC1(S(=O)(=O)NC(=O)[C@@]2(NC(=O)[C@@H]3C[C@@]4(CN3C(=O)[C@@H](NC(=O)[C@@H](NC(=O)[C@@H]3CCCCN3C(C)C)C3CCCCC3)C(C)(C)C)C(C)(C)C43CCC3)C[C@H]2CC)CC1 [Compound 77, (5R,8S)-7-[(2S)-2-{[(2S)-2-cyclohexyl-2-({[(2S)-1-isopropylpiperidin-2-yl]carbonyl}amino)acetyl]amino}-3,3-dimethylbutanoyl]-N-[(1R,2R)-2-ethyl-1-{[(1-propylcyclopropyl)sulfonyl]carbamoyl}cyclopropyl]-10,10-dimethyl-7-azadispiro[3.0.4.1]decane-8-carboxamide] | 8.70 | ≥ 100 µM | ≥ 30 µM |  | 
7 | C=C[C@@H]1C[C@]1(NC(=O)[C@@H]1C[C@@]2(CN1C(=O)[C@@H](NC(=O)[C@@H](NC(=O)[C@@H]1COCCN1C(C)C)C(C)(C)C)C(C)(C)C)C(C)(C)C21CCC1)C(=O)NS(=O)(=O)C1CC1 [Compound 143, (5R,8S)-N-{(1R,2S)-1-[(cyclopropylsulfonyl)carba-moyl]-2-vinylcyclopropyl}-7-[(2S)-2-{[(2S)-2-({[(3S)-4-isopropylmorpholin-3-yl]carbonyl}amino)-3,3-dimethylbutanoyl]amino}-3,3-dimethylbutanoyl]-10,10-dimethyl-7-azadispiro[3.0.4.1]decane-8-carboxamide] | 8.40 |  |  |  | 
8 | C=CCC1(S(=O)(=O)NC(=O)[C@@]2(NC(=O)[C@@H]3C[C@@]4(CN3C(=O)[C@@H](NC(=O)[C@@H](NC(=O)[C@@H]3CCCCN3C(C)C)C3CCCCC3)C(C)(C)C)C(C)(C)C43CCC3)C[C@H]2C=C)CC1 [Compound 144, (5R,8S)-N-[(1R,2S)-1-{[(1-allylcyclopropyl)sulfonyl]carba-moyl}-2-vinylcyclopropyl]-7-[(2S)-2-{[(2S)-2-cyclohexyl-2-({[(2S)-1-isopropylpiperidin-2-yl]carbonyl}amino)acetyl]amino}-3,3-dimethylbutanoyl]-10,10-dimethyl-7-azadispiro[3.0.4.1]decane-8-carboxamide] | 9.00 |  |  |  | 
9 | (5R,8S)-7-[(2S)-2- ({cyclohexyl[(1H-pyrazol-4- ylcarbonyl)amino]acetyl} amino)-3,3-dimethylbutanoyl]-N- {(1R,2S)-1- [(cyclopropylsulfonyl)carba- moyl]-2-vinylcyclopropyl}- 10,10-dimethyl-7- azadispiro[3.0.4.1]decane-8- carboxamide [Compound 106] |  |  |  | 9.00 | 
10 | (5R,8S)-7-[(2S)-2-{[(2S)-2- cyclohexyl-2-({[(2S)-1- isopropylpiperidin-2- yl]carbonyl}amino)acetyl] amino}-3,3-dimethylbutanoyl]-N- {(1R,2S)-1- [(cyclopropylsulfonyl)carba- moyl]-2-vinylcyclopropyl}- 10,10-dimethyl-7- azadispiro[3.0.4.1]decane-8- carboxamide [Compound 21] |  |  |  | 9.30 | 
11 | (5R,8S)-7-[(2S)-2-{[(2S)-2-cyclohexyl-2-({[(2S)-1-isopropylpiperidin-2-yl]carbonyl}amino)acetyl]amino}-3,3-dimethylbutanoyl]-N-{(1R,2S)-1-[(cyclopentylsulfonyl)carbamoyl]-2-vinylcyclopropyl}-10,10-dimethyl-7-azadispiro[3.0.4.1]decane-8-carboxamide [Compound 80] |  |  |  |  | solubility in water ([2]; pH 1): at least 100 micromolar; solubility in water ([2]; pH 6.8): at least 30 micromolar
12 | (5R,8S)-7-[(2S)-2-{[{[(5- chloro-1H-indol-2- yl)carbonyl]amino}(cyclohex- yl)acetyl]amino}-3,3- dimethylbutanoyl]-N- {(1R,2S)-1- [(cyclopropylsulfonyl)carba- moyl]-2-vinylcyclopropyl}- 10,10-dimethyl-7- azadispiro[3.0.4.1]decane-8- carboxamide [Compound 129] |  |  |  | 7.82 | 
13 | (5R,8S)-7-{(2S)-2- [(cyclohexyl{[(1- methylcyclohexyl)carbonyl] amino}acetyl)amino]-3,3- dimethylbutanoyl}-N- {(1R,2S)-1- [(cyclopropylsulfonyl)carba- moyl]-2-vinylcyclopropyl}- 10,10-dimethyl-7- azadispiro[3.0.4.1]decane-8- carboxamide [Compound 128] |  |  |  | 8.30 | 
14 | (5R,8S)-N-{(1R,2S)-1- [(cyclopropylsulfonyl)carba- moyl]-2-vinylcyclopropyl}-7- [(2S)-2-({(2S)-3,3-dimethyl- 2-[(piperidin-1- ylcarbonyl)amino]butanoyl} amino)-3,3-dimethylbutanoyl]- 10,10-dimethyl-7- azadispiro[3.0.4.1]decane-8- carboxamide [Compound 57] |  |  |  | 7.60 | 
